Assays:
Test in all cases: relative viability (nuclei count vs DMSO), 5 days (fraction); higher = more cells survive
[1] = system: NCI-H1650
In short: (§1)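 The day after seeding in 1536-well plates, lung cancer cell lines were treated by pin tool with a single drug, or with a fixed anchor-drug dose together with five library-drug doses (not always all listed) in √10 steps. After 5 days, a combined fix-and-stain solution (final 0.05% Triton X-100, 1% formaldehyde, 1 ug/ml Hoechst) was added. Nuclei counted on 4× images gave relative viability as treated counts over vehicle counts, reported as the median of duplicate plates.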

[2] = system: NCI-H2023
In short: as §1

[3] = system: HCC-15
In short: as §1

[4] = system: NCI-H1915
In short: as §1

[5] = system: NCI-H2009
In short: as §1

[6] = system: BEN
In short: as §1

[7] = system: ChaGo-K-1
In short: as §1

[8] = system: HCC-827
In short: as §1

[9] = system: HCC-44
In short: as §1

[10] = system: LCLC-97TM1
In short: as §1

[11] = system: NCI-H596
In short: as §1

[12] = system: NCI-H1395
In short: as §1

[13] = system: NCI-H1944
In short: as §1

[14] = system: NCI-H522
In short: as §1

[15] = system: LU99A
In short: as §1

[16] = system: COR-L 105
In short: as §1

[17] = system: LC-2-ad
In short: as §1

[18] = system: LOU-NH91
In short: as §1

[19] = system: CAL-12T
In short: as §1

[20] = system: HCC-366
In short: as §1

[21] = system: NCI-H661
In short: as §1

[22] = system: NCI-H650
In short: as §1

[23] = system: HARA
In short: as §1

Cc1cn(-c2cc(NC(=O)c3ccc(C)c(Nc4nccc(-c5cccnc5)n4)c3)cc(C(F)(F)F)c2)cn1 [Nilotinib] + Nc1nc2[nH]cc(CCc3ccc(C(=O)N[C@@H](CCC(=O)O)C(=O)O)cc3)c2c(=O)[nH]1 [Pemetrexed] (partner 0.2 µM)
relative viability ([1]; first compound 0.001 µM): 0.409 | relative viability ([1]; first compound 0.003162 µM): 0.526 | relative viability ([1]; first compound 0.01 µM): 0.39 | relative viability ([1]; first compound 0.03162 µM): 0.375 | relative viability ([1]; first compound 0.1 µM): 0.498 | relative viability ([2]; first compound 0.001 µM): 0.213 | relative viability ([2]; first compound 0.003162 µM): 0.264 | relative viability ([2]; first compound 0.01 µM): 0.223 | relative viability ([2]; first compound 0.03162 µM): 0.189 | relative viability ([2]; first compound 0.1 µM): 0.14 | relative viability ([3]; first compound 0.001 µM): 0.213 | relative viability ([3]; first compound 0.003162 µM): 0.205 | relative viability ([3]; first compound 0.01 µM): 0.204 | relative viability ([3]; first compound 0.03162 µM): 0.18 | relative viability ([3]; first compound 0.1 µM): 0.162 | relative viability ([4]; first compound 0.001 µM): 0.435 | relative viability ([4]; first compound 0.003162 µM): 0.427 | relative viability ([4]; first compound 0.01 µM): 0.532 | relative viability ([4]; first compound 0.03162 µM): 0.449 | relative viability ([4]; first compound 0.1 µM): 0.438 | relative viability ([5]; first compound 0.001 µM): 0.926 | relative viability ([5]; first compound 0.003162 µM): 0.964 | relative viability ([5]; first compound 0.01 µM): 0.919 | relative viability ([5]; first compound 0.03162 µM): 1.06 | relative viability ([5]; first compound 0.1 µM): 0.989 | relative viability ([6]; first compound 0.001 µM): 0.868 | relative viability ([6]; first compound 0.003162 µM): 0.715 | relative viability ([6]; first compound 0.01 µM): 0.614 | relative viability ([6]; first compound 0.03162 µM): 0.772 | relative viability ([6]; first compound 0.1 µM): 0.469 | relative viability ([7]; first compound 0.001 µM): 0.27 | relative viability ([7]; first compound 0.003162 µM): 0.244 | relative viability ([7]; first compound 0.01 µM): 0.228 | relative viability ([7]; first compound 0.03162 µM): 0.229 | relative viability ([7]; first compound 0.1 µM): 0.215 | relative viability ([8]; first compound 0.001 µM): 0.272 | relative viability ([8]; first compound 0.003162 µM): 0.224 | relative viability ([8]; first compound 0.03162 µM): 0.217 | relative viability ([8]; first compound 0.1 µM): 0.245 | relative viability ([9]; first compound 0.001 µM): 0.662 | relative viability ([9]; first compound 0.003162 µM): 0.574 | relative viability ([9]; first compound 0.01 µM): 0.613 | relative viability ([9]; first compound 0.1 µM): 0.66 | relative viability ([10]; first compound 0.001 µM): 0.18 | relative viability ([10]; first compound 0.003162 µM): 0.165 | relative viability ([10]; first compound 0.01 µM): 0.175 | relative viability ([10]; first compound 0.03162 µM): 0.183 | relative viability ([10]; first compound 0.1 µM): 0.0978 | relative viability ([11]; first compound 0.001 µM): 0.49 | relative viability ([11]; first compound 0.003162 µM): 0.423 | relative viability ([11]; first compound 0.01 µM): 0.491 | relative viability ([11]; first compound 0.03162 µM): 0.513 | relative viability ([11]; first compound 0.1 µM): 0.371 | relative viability ([12]; first compound 0.001 µM): 1 | relative viability ([12]; first compound 0.01 µM): 0.607 | relative viability ([12]; first compound 0.03162 µM): 0.642 | relative viability ([12]; first compound 0.1 µM): 0.517 | relative viability ([13]; first compound 0.001 µM): 0.56 | relative viability ([13]; first compound 0.003162 µM): 0.519 | relative viability ([13]; first compound 0.01 µM): 0.566 | relative viability ([13]; first compound 0.03162 µM): 0.578 | relative viability ([13]; first compound 0.1 µM): 0.265 | relative viability ([14]; first compound 0.01 µM): 1.21 | relative viability ([14]; first compound 0.03162 µM): 0.949 | relative viability ([14]; first compound 0.1 µM): 0.792 | relative viability ([15]; first compound 0.001 µM): 0.158 | relative viability ([15]; first compound 0.003162 µM): 0.202 | relative viability ([15]; first compound 0.01 µM): 0.177 | relative viability ([15]; first compound 0.03162 µM): 0.225 | relative viability ([15]; first compound 0.1 µM): 0.155 | relative viability ([16]; first compound 0.001 µM): 0.975 | relative viability ([16]; first compound 0.003162 µM): 1.17 | relative viability ([16]; first compound 0.01 µM): 1.55 | relative viability ([16]; first compound 0.03162 µM): 1.13 | relative viability ([16]; first compound 0.1 µM): 1.15 | relative viability ([17]; first compound 0.001 µM): 0.248 | relative viability ([17]; first compound 0.003162 µM): 0.251 | relative viability ([17]; first compound 0.01 µM): 0.257 | relative viability ([17]; first compound 0.03162 µM): 0.251 | relative viability ([17]; first compound 0.1 µM): 0.248 | relative viability ([18]; first compound 0.001 µM): 0.376 | relative viability ([18]; first compound 0.003162 µM): 1.11 | relative viability ([18]; first compound 0.01 µM): 0.374 | relative viability ([18]; first compound 0.03162 µM): 0.384 | relative viability ([18]; first compound 0.1 µM): 0.403 | relative viability ([19]; first compound 0.001 µM): 0.977 | relative viability ([19]; first compound 0.003162 µM): 1.48 | relative viability ([19]; first compound 0.01 µM): 1.34 | relative viability ([19]; first compound 0.03162 µM): 0.992 | relative viability ([19]; first compound 0.1 µM): 1.22 | relative viability ([20]; first compound 0.001 µM): 0.157 | relative viability ([20]; first compound 0.003162 µM): 0.129 | relative viability ([20]; first compound 0.01 µM): 0.163 | relative viability ([20]; first compound 0.03162 µM): 0.106 | relative viability ([20]; first compound 0.1 µM): 0.115 | relative viability ([21]; first compound 0.001 µM): 0.966 | relative viability ([21]; first compound 0.003162 µM): 1.03 | relative viability ([21]; first compound 0.01 µM): 1.07 | relative viability ([21]; first compound 0.03162 µM): 0.888 | relative viability ([21]; first compound 0.1 µM): 0.893 | relative viability ([22]; first compound 0.001 µM): 0.887 | relative viability ([22]; first compound 0.003162 µM): 0.86 | relative viability ([22]; first compound 0.01 µM): 1.12 | relative viability ([22]; first compound 0.03162 µM): 0.914 | relative viability ([22]; first compound 0.1 µM): 0.746 | relative viability ([23]; first compound 0.001 µM): 0.311 | relative viability ([23]; first compound 0.003162 µM): 0.235 | relative viability ([23]; first compound 0.01 µM): 0.198 | relative viability ([23]; first compound 0.03162 µM): 0.184 | relative viability ([23]; first compound 0.1 µM): 0.214

Reference: the supplement of paper PMC10307832
